Key:
[1] = molecular target: nucleoside diphosphate kinase (NDK A) (Homo sapiens, UniProt P15531); assay: pAp-agarose affinity chromatography of HeLa extract, LC-MS/MS; assay type: cell-based
[2] = molecular target: T1, Oligoribonuclease (Orn) (Escherichia coli, UniProt P0A784); assay: Cy5-RNA 5mer degradation assay; assay type: biochemical
T1 sequence (P0A784 2-181): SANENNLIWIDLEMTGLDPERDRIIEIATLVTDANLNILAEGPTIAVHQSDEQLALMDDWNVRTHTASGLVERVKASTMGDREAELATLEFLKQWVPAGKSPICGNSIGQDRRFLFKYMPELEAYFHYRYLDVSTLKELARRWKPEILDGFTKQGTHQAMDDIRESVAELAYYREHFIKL

[3] = molecular target: T2, small fragment nuclease (Sfn) (Homo sapiens, UniProt Q9Y3B8); assay: Cy5-RNA 5mer degradation assay; assay type: biochemical
T2 sequence (Q9Y3B8 26-237): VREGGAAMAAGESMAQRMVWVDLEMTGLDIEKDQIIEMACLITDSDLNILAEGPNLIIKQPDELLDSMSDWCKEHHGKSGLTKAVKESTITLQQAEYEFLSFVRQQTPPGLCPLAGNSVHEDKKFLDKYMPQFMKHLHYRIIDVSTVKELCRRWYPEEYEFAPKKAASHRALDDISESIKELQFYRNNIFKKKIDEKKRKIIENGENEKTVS

Sequence of nucleoside diphosphate kinase (NDK A) (P15531 2-152): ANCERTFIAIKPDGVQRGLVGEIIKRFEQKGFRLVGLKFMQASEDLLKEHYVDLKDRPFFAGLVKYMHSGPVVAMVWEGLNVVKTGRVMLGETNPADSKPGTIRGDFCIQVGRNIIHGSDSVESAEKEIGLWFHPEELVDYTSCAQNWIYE

Cy5-RNA 5mer degradation assay (gel) with purified Orn; also pAp-agarose affinit [2]: ~ 20 µM
Cy5-RNA 5mer degradation assay (gel) with purified Sfn; also pAp-agarose capture [3]: ~ 20 µM
Structure (SMILES): Nc1ncnc2c1ncn2[C@@H]1O[C@H](COP(=O)(O)O)[C@@H](OP(=O)(O)O)[C@H]1O [pAp]
pAp-agarose affinity chromatography of HeLa extract, LC-MS/MS [1]: The second human enzyme we found to bind to pAp is NDK.

From paper PMC1458514 (Nucleic Acids Research, 2006)
